In ChEMBL document CHEMBL1201862, “PubChem BioAssay data set” (2004):
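Tested at 5 concentrations; 48 h exposure; 96-well plates; endpoints linearly interpolated, else capped at highest concentration. GI50 is the concentration that inhibits growth by half.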 Activity calls are given as the source filed them. Rule as the data show it: active = GI50 up to about 1.1 µM and inactive = higher. Residues, ends and D or L forms follow the SMILES beside them. *: point of attachment. Bn = c1ccc(C*)cc1

Key:
Test in all cases: NCI anticancer screen, dose series, 48 h
786-0 = system: 786-0
A549 = system: A549
ACHN = system: ACHN
BT-549 = system: BT-549
COLO 205 = system: COLO 205
DU-145 = system: DU-145
EKVX = system: EKVX
HCT-116 = system: HCT-116
HCT-15 = system: HCT-15
HOP-62 = system: HOP-62
HOP-92 = system: HOP-92
HT-29 = system: HT-29
Hs-578T = system: Hs-578T
IGROV-1 = system: IGROV-1
LOX IMVI = system: LOX IMVI
M14 = system: M14
MCF7 = system: MCF7
MDA-MB-231 = system: MDA-MB-231
MDA-N = system: MDA-N
MOLT-4 = system: MOLT-4
Malme-3M = system: Malme-3M
NCI-H226 = system: NCI-H226
NCI-H460 = system: NCI-H460
NCI-H522 = system: NCI-H522
NCI/ADR-RES = system: NCI/ADR-RES
OVCAR-3 = system: OVCAR-3
OVCAR-4 = system: OVCAR-4
OVCAR-5 = system: OVCAR-5
OVCAR-8 = system: OVCAR-8
PC-3 = system: PC-3
SF-268 = system: SF-268
SF-295 = system: SF-295
SK-MEL-2 = system: SK-MEL-2
SK-MEL-5 = system: SK-MEL-5
SK-OV-3 = system: SK-OV-3
SN12C = system: SN12C
SNB-19 = system: SNB-19
SNB-75 = system: SNB-75
SR = system: SR
SW-620 = system: SW-620
T47D = system: T47D
UACC-257 = system: UACC-257
UACC-62 = system: UACC-62
UO-31 = system: UO-31
A498 = system: A498
CAKI-1 = system: CAKI-1
CCRF-CEM = system: CCRF-CEM
HCC 2998 = system: HCC 2998
HL-60 = system: HL-60
K562 = system: K562
KM12 = system: KM12
MDA-MB-435 = system: MDA-MB-435
NCI-H23 = system: NCI-H23
RPMI-8226 = system: RPMI-8226
RXF 393 = system: RXF 393
SF-539 = system: SF-539
SK-MEL-28 = system: SK-MEL-28
TK-10 = system: TK-10
U-251 = system: U-251

Measured: GI50

CCC1C(c2cc(OC)c(OC)c(OC)c2)c2cc3c(cc2OC1N1CCOCC1)OCO3 (stereo unspecified)
3.08 µM: HCT-15
inactive: 786-0 11.6 µM | A549 4.36 µM | ACHN 3.99 µM | BT-549 2.99 µM | COLO 205 4.22 µM | DU-145 5.33 µM | EKVX 14.2 µM | HCT-116 3.68 µM | HOP-62 4.01 µM | HOP-92 10.8 µM | HT-29 2.73 µM | Hs-578T 3.02 µM | IGROV-1 3.9 µM | LOX IMVI 2.48 µM | M14 4.12 µM | MCF7 2.84 µM | MDA-MB-231 15.8 µM | MOLT-4 1.88 µM | Malme-3M 13.2 µM | NCI-H226 7.98 µM | NCI-H460 3.4 µM | NCI-H522 4.95 µM | NCI/ADR-RES 5.61 µM | OVCAR-3 4.31 µM | OVCAR-4 2.12 µM | OVCAR-5 2.29 µM | OVCAR-8 3.93 µM | PC-3 2.02 µM | SF-268 10.5 µM | SF-295 2.79 µM | SK-MEL-2 14.7 µM | SK-MEL-5 1.44 µM | SK-OV-3 4.88 µM | SN12C 8.15 µM | SNB-19 4.14 µM | SNB-75 9.4 µM | SR 3.18 µM | SW-620 1.98 µM | T47D 10.5 µM | UACC-257 14.6 µM | UACC-62 6.08 µM | UO-31 3.88 µM
active: MDA-N 0.977 µM

COC(=O)C(CC(C)C)NC(=O)C(N)Cc1ccc(OCc2ccccc2)cc1 (stereo unspecified) (H-Tyr(Bn)-Leu-OMe; configuration not given here)
> 10 µM: HCT-15
inactive: 786-0 > 10 µM | A498 > 10 µM | A549 > 10 µM | ACHN > 10 µM | BT-549 > 10 µM | CAKI-1 > 10 µM | CCRF-CEM > 10 µM | COLO 205 > 10 µM | DU-145 > 10 µM | EKVX > 10 µM | HCC 2998 > 10 µM | HCT-116 > 10 µM | HL-60 2.54 µM | HOP-62 > 10 µM | HOP-92 > 10 µM | HT-29 > 10 µM | Hs-578T > 10 µM | IGROV-1 > 10 µM | K562 > 10 µM | KM12 > 10 µM | LOX IMVI > 10 µM | M14 > 10 µM | MDA-MB-231 > 10 µM | MDA-MB-435 > 10 µM | MDA-N > 10 µM | MOLT-4 > 10 µM | Malme-3M 2.9 µM | NCI-H226 > 10 µM | NCI-H23 > 10 µM | NCI-H460 > 10 µM | NCI-H522 > 10 µM | NCI/ADR-RES > 10 µM | OVCAR-3 > 10 µM | OVCAR-4 > 10 µM | OVCAR-5 > 10 µM | OVCAR-8 > 10 µM | PC-3 > 10 µM | RPMI-8226 > 10 µM | RXF 393 > 10 µM | SF-268 > 10 µM | SF-295 > 10 µM | SF-539 > 10 µM | SK-MEL-28 > 10 µM | SK-MEL-2 > 10 µM | SK-MEL-5 > 10 µM | SK-OV-3 > 10 µM | SN12C > 10 µM | SNB-19 > 10 µM | SNB-75 > 10 µM | SR 7.64 µM | SW-620 > 10 µM | T47D > 10 µM | TK-10 > 10 µM | U-251 > 10 µM | UACC-257 > 10 µM | UACC-62 > 10 µM | UO-31 > 10 µM

Nc1nc2[nH]cc(CCc3ccc(C(=O)N[C@@H](CCC(=O)O)C(=O)O)cc3)c2c(=O)[nH]1 [PEMETREXED]
inactive: A549 1.4 µM | BT-549 > 100 µM | CAKI-1 > 100 µM | COLO 205 > 100 µM | DU-145 > 100 µM | EKVX > 100 µM | HOP-62 > 100 µM | HOP-92 > 100 µM | HT-29 > 100 µM | Hs-578T > 100 µM | IGROV-1 > 100 µM | KM12 > 100 µM | M14 > 100 µM | MDA-MB-231 10.3 µM | MDA-MB-435 > 100 µM | MDA-N > 100 µM | Malme-3M > 100 µM | NCI-H226 > 100 µM | NCI-H23 > 100 µM | NCI-H522 > 100 µM | OVCAR-3 > 100 µM | OVCAR-4 > 100 µM | OVCAR-5 > 100 µM | PC-3 > 100 µM | RXF 393 > 100 µM | SK-MEL-28 > 100 µM | SK-MEL-2 > 100 µM | SK-MEL-5 > 100 µM | SK-OV-3 > 100 µM | SN12C > 100 µM | SNB-19 > 100 µM | SNB-75 > 100 µM | SR > 100 µM | SW-620 > 100 µM | T47D > 100 µM | TK-10 > 100 µM | U-251 > 100 µM | UACC-257 > 100 µM
active: 786-0 < 0.0104 µM | A498 0.27 µM | ACHN 0.0255 µM | HCC 2998 < 0.01 µM | HCT-116 0.0597 µM | HL-60 0.0652 µM | K562 < 0.0258 µM | LOX IMVI 0.0743 µM | MCF7 < 0.0147 µM | MOLT-4 0.0695 µM | NCI-H460 0.0359 µM | SF-268 0.387 µM | SF-295 0.418 µM | SF-539 < 0.01 µM | UACC-62 0.23 µM
> 100 µM: HCT-15
